The results in this text go back to US9587005B2 (priority 2010, dated 2017).

In experiment [1] the target is T1, GIP receptor (Homo sapiens, UniProt P48546).
T1 sequence (P48546 22-466): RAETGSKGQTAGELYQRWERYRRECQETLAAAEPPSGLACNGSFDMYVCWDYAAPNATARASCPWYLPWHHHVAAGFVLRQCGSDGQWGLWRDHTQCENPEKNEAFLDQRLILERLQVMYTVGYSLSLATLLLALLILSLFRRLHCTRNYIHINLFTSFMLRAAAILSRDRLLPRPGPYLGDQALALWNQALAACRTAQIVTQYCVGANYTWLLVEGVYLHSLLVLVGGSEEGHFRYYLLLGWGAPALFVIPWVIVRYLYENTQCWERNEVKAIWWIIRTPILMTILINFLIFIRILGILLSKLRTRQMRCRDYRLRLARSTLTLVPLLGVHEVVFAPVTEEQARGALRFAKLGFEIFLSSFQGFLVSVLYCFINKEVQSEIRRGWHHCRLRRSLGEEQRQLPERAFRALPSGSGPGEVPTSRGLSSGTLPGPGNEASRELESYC
The experiment is described as follows: cAMP induction, firefly luciferase reporter assay in HEK293 cells co-transfected with GIP receptor. It counts as cell-based. To be noted: EC50 (nM) at GIP Receptor.

Experiment [2] has as its target T2, GLP-1 receptor (Homo sapiens, UniProt P43220).
T2 construct: expressed in transfected cells; host or cells: HEK293
Kind of experiment: cAMP induction, firefly luciferase reporter assay in HEK293 cells co-transfected with GLP-1 receptor. It counts as cell-based. The settings on record: EC50 (nM) at GLP-1 Receptor. The source says:
This example describes an exemplary method of testing the biological activity of the peptides of the present disclosures, which method involves assaying cAMP synthesis.

Setting [3] is: Table 4, Example 9, composite of multiple different activity assays.

*1 amine or outer side, *2 acyl side, *3 side chain or, on linkers, in order; H or OH if unused. Where a SMILES comes first, the peptide text is derived from it. Side-chain parts run from the residue outwards. [ ]: non-standard residue; d: D form. The star is where a group is joined. Phe(4-NH2) = Nc1ccc(C[C@H](N)C(=O)O)cc1; γGlu = O=C(O)[C@H](CCC(=O)[*:2])N[*:1]; Palmitoyl = CCCCCCCCCCCCCCCC(=O)*; Aib = CC(C)(N)C(=O)O

Broadly, the EC50 is the concentration that produces a half-maximal response. High values mean a less potent agent, low ones a more potent agent.

T2 sequence (P43220 24-463): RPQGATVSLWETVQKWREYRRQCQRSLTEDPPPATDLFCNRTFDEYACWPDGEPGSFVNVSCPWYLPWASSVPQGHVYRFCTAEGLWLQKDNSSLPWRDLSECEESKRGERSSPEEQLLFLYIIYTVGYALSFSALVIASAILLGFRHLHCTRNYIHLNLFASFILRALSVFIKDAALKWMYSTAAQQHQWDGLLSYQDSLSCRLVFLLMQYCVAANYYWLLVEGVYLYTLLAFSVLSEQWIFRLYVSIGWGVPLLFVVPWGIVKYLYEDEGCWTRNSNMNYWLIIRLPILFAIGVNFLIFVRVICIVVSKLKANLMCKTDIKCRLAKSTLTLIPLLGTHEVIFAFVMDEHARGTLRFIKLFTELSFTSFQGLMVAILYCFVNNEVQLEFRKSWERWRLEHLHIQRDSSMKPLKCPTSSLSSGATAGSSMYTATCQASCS

As to `CCCCCCCCCCCCCCCCC(CC(=O)NCCCC[C@H](NC(=O)[C@H](CO)NC(=O)[C@@H]1CCCN1C(=O)[C@@H]1CCCN1C(=O)[C@@H]1CCCN1C(=O)[C@H](C)NC(=O)CNC(=O)[C@H](CO)NC(=O)[C@H](CO)NC(=O)[C@@H]1CCCN1C(=O)CNC(=O)CNC(=O)[C@H](C)NC(=O)[C@H](CC(C)C)NC(=O)[C@H](CC(C)C)NC(=O)[C@H](Cc1c[nH]c2ccccc12)NC(=O)[C@H](CC(N)=O)NC(=O)[C@@H](NC(=O)[C@H](Cc1ccccc1)NC(=O)[C@H](CCC(=O)O)NC(=O)C(C)(C)NC(=O)[C@H](C)NC(=O)[C@H](C)NC(=O)[C@H](CCC(N)=O)NC(=O)[C@H](CCCCN)NC(=O)[C@H](CC(=O)O)NC(=O)[C@H](CC(C)C)NC(=O)[C@H](Cc1ccc(O)cc1)NC(=O)[C@@H](NC(=O)[C@H](CO)NC(=O)[C@H](Cc1ccc(O)cc1)NC(=O)[C@H](CC(=O)O)NC(=O)[C@H](CO)NC(=O)[C@@H](NC(=O)[C@H](Cc1ccccc1)NC(=O)[C@@H](NC(=O)CNC(=O)[C@H](CCC(=O)O)NC(=O)C(C)(C)NC(=O)[C@@H](N)Cc1ccc(O)cc1)[C@@H](C)O)[C@@H](C)O)[C@@H](C)CC)C(C)C)C(=O)NCC(N)=O)C(=O)O` (some centres unmarked) [SEQ ID NO: 140], the half-maximal effective concentration (EC50) in experiment [1] (Table 9, Example 15) was 0.001 nM; in experiment [2] (Table 9, Example 15), 0.001 nM.
Regarding `CCCCCCCCCCCCCCCCC(CC(=O)NCCC(=O)NCCCC[C@H](NC(=O)[C@H](CO)NC(=O)[C@@H]1CCCN1C(=O)[C@@H]1CCCN1C(=O)[C@@H]1CCCN1C(=O)[C@H](C)NC(=O)CNC(=O)[C@H](CO)NC(=O)[C@H](CO)NC(=O)[C@@H]1CCCN1C(=O)CNC(=O)CNC(=O)[C@H](C)NC(=O)[C@H](CC(C)C)NC(=O)[C@H](CC(C)C)NC(=O)[C@H](Cc1c[nH]c2ccccc12)NC(=O)[C@H](CC(N)=O)NC(=O)[C@@H](NC(=O)[C@H](Cc1ccccc1)NC(=O)[C@H](CCC(=O)O)NC(=O)C(C)(C)NC(=O)[C@H](C)NC(=O)[C@H](C)NC(=O)[C@H](CCC(N)=O)NC(=O)[C@H](CCCCN)NC(=O)[C@H](CC(=O)O)NC(=O)[C@H](CC(C)C)NC(=O)[C@H](Cc1ccc(O)cc1)NC(=O)[C@@H](NC(=O)[C@H](CO)NC(=O)[C@H](Cc1ccc(O)cc1)NC(=O)[C@H](CC(=O)O)NC(=O)[C@H](CO)NC(=O)[C@@H](NC(=O)[C@H](Cc1ccccc1)NC(=O)[C@@H](NC(=O)CNC(=O)[C@H](CCC(=O)O)NC(=O)C(C)(C)NC(=O)[C@@H](N)Cc1ccc(O)cc1)[C@@H](C)O)[C@@H](C)O)[C@@H](C)CC)C(C)C)C(=O)NCC(N)=O)C(=O)O` (some centres unmarked) [SEQ ID NO: 141], the EC50 in experiment [1] (Table 9, Example 15) stood at 0.002 nM; in experiment [2] (Table 9, Example 15) it was 0.001 nM.
As for `CCCCCCCCCCCCCCCCCCC(CC(=O)NCCCC[C@H](NC(=O)[C@H](CO)NC(=O)[C@@H]1CCCN1C(=O)[C@@H]1CCCN1C(=O)[C@@H]1CCCN1C(=O)[C@H](C)NC(=O)CNC(=O)[C@H](CO)NC(=O)[C@H](CO)NC(=O)[C@@H]1CCCN1C(=O)CNC(=O)CNC(=O)[C@H](C)NC(=O)[C@H](CC(C)C)NC(=O)[C@H](CC(C)C)NC(=O)[C@H](Cc1c[nH]c2ccccc12)NC(=O)[C@H](CC(N)=O)NC(=O)[C@@H](NC(=O)[C@H](Cc1ccccc1)NC(=O)[C@H](CCC(=O)O)NC(=O)C(C)(C)NC(=O)[C@H](C)NC(=O)[C@H](C)NC(=O)[C@H](CCC(N)=O)NC(=O)[C@H](CCCCN)NC(=O)[C@H](CC(=O)O)NC(=O)[C@H](CC(C)C)NC(=O)[C@H](Cc1ccc(O)cc1)NC(=O)[C@@H](NC(=O)[C@H](CO)NC(=O)[C@H](Cc1ccc(O)cc1)NC(=O)[C@H](CC(=O)O)NC(=O)[C@H](CO)NC(=O)[C@@H](NC(=O)[C@H](Cc1ccccc1)NC(=O)[C@@H](NC(=O)CNC(=O)[C@H](CCC(=O)O)NC(=O)C(C)(C)NC(=O)[C@@H](N)Cc1ccc(O)cc1)[C@@H](C)O)[C@@H](C)O)[C@@H](C)CC)C(C)C)C(=O)NCC(N)=O)C(=O)O` (some centres unmarked) [SEQ ID NO: 142], the half-maximal effective concentration (EC50) is 0.001 nM in experiment [1] (Table 9, Example 15) and 0.004 nM in experiment [2] (Table 9, Example 15).
Turning to `CCCCCCCCCCCCCCCC(=O)N[C@@H](CCC(=O)N[C@@H](CCC(=O)Nc1ccc(C[C@H](NC(=O)[C@H](CC(=O)O)NC(=O)[C@H](CO)NC(=O)[C@@H](NC(=O)[C@H](Cc2ccccc2)NC(=O)[C@@H](NC(=O)CNC(=O)[C@H](CCC(=O)O)NC(=O)C(C)(C)NC(=O)[C@@H](N)Cc2ccc(O)cc2)[C@@H](C)O)[C@@H](C)O)C(=O)N[C@@H](CO)C(=O)N[C@H](C(=O)N[C@@H](Cc2ccc(O)cc2)C(=O)N[C@@H](CC(C)C)C(=O)N[C@@H](CC(=O)O)C(=O)N[C@@H](CCCCN)C(=O)N[C@@H](CCC(N)=O)C(=O)N[C@@H](C)C(=O)N[C@@H](C)C(=O)NC(C)(C)C(=O)N[C@@H](CCC(=O)O)C(=O)N[C@@H](Cc2ccccc2)C(=O)N[C@H](C(=O)N[C@@H](CC(N)=O)C(=O)N[C@@H](Cc2c[nH]c3ccccc23)C(=O)N[C@@H](CC(C)C)C(=O)N[C@@H](CC(C)C)C(=O)N[C@@H](C)C(=O)NCC(=O)NCC(=O)N2CCC[C@H]2C(=O)N[C@@H](CO)C(=O)N[C@@H](CO)C(=O)NCC(=O)N[C@@H](C)C(=O)N2CCC[C@H]2C(=O)N2CCC[C@H]2C(=O)N2CCC[C@H]2C(=O)N[C@@H](CO)C(N)=O)C(C)C)[C@@H](C)CC)cc1)C(=O)O)C(=O)O` [SEQ ID NO: 143] (H-Y[Aib]EGTFTSD[Phe(4-NH2)]([γGlu-γGlu-Palmitoyl])SIYLDKQAA[Aib]EFVNWLLAGGPSSGAPPPS-NH2; N-terminus assumed), the EC50 came out at 0.003 nM in experiment [1] (Table 9, Example 15) and 0.002 nM in experiment [2] (Table 9, Example 15).
With `CCCCCCCCCCCCCCCC(=O)N[C@@H](CCC(=O)NCCCC[C@H](NC(=O)[C@H](CC(=O)O)NC(=O)[C@H](CO)NC(=O)[C@@H](NC(=O)[C@H](Cc1ccccc1)NC(=O)[C@@H](NC(=O)CNC(=O)[C@H](CCC(=O)O)NC(=O)C(C)(C)NC(=O)[C@@H](N)Cc1c[nH]cn1)[C@@H](C)O)[C@@H](C)O)C(=O)N[C@@H](CO)C(=O)N[C@@H](CCCCN)C(=O)N[C@@H](Cc1ccc(O)cc1)C(=O)N[C@@H](CC(C)C)C(=O)N[C@@H](CC(=O)O)C(=O)N[C@@H](CCC(=O)O)C(=O)N[C@@H](CCCNC(=N)N)C(=O)N[C@@H](CCCNC(=N)N)C(=O)N[C@@H](C)C(=O)NC(C)(C)C(=O)N[C@@H](CCC(=O)O)C(=O)N[C@@H](Cc1ccccc1)C(=O)N[C@H](C(=O)N[C@@H](CCC(N)=O)C(=O)N[C@@H](Cc1c[nH]c2ccccc12)C(=O)N[C@@H](CC(C)C)C(=O)N[C@@H](CC(C)C)C(=O)N[C@@H](CC(=O)O)C(=O)N[C@H](C(N)=O)[C@@H](C)O)C(C)C)C(=O)O` [compound 40] (H-H[Aib]EGTFTSDK([γGlu-Palmitoyl])SKYLDERRA[Aib]EFVQWLLDT-NH2; N-terminus assumed), the EC50 in experiment [1] (setting [3]) came out at 0.024 nM; in experiment [2] (setting [3]) it was 0.006 nM.
In the case of `CCCCCCCCCCCCCCCC(=O)N[C@@H](CCC(=O)NCCCC[C@H](NC(=O)[C@H](CC(=O)O)NC(=O)[C@H](CO)NC(=O)[C@@H](NC(=O)[C@H](Cc1ccccc1)NC(=O)[C@@H](NC(=O)CNC(=O)[C@H](CCC(=O)O)NC(=O)C(C)(C)NC(=O)[C@@H](N)Cc1c[nH]cn1)[C@@H](C)O)[C@@H](C)O)C(=O)N[C@@H](CO)C(=O)N[C@@H](CCCCN)C(=O)N[C@@H](Cc1ccc(O)cc1)C(=O)N[C@@H](CC(C)C)C(=O)N[C@@H](CC(=O)O)C(=O)N[C@@H](CCC(=O)O)C(=O)N[C@@H](CCCNC(=N)N)C(=O)N[C@@H](CCCNC(=N)N)C(=O)N[C@@H](C)C(=O)NC(C)(C)C(=O)N[C@@H](CC(=O)O)C(=O)N[C@@H](Cc1ccccc1)C(=O)N[C@H](C(=O)N[C@@H](CCC(N)=O)C(=O)N[C@@H](Cc1c[nH]c2ccccc12)C(=O)N[C@@H](CC(C)C)C(=O)N[C@@H](CC(C)C)C(=O)N[C@@H](CC(=O)O)C(=O)NCC(=O)NCC(=O)N1CCC[C@H]1C(=O)N[C@@H](CO)C(=O)N[C@@H](CO)C(=O)NCC(=O)N[C@@H](C)C(=O)N1CCC[C@H]1C(=O)N1CCC[C@H]1C(=O)N1CCC[C@H]1C(=O)N[C@@H](CO)C(N)=O)C(C)C)C(=O)O` [compound 41] (H-H[Aib]EGTFTSDK([γGlu-Palmitoyl])SKYLDERRA[Aib]DFVQWLLDGGPSSGAPPPS-NH2), the EC50 is 0.013 nM in experiment [1] (setting [3]) and 0.006 nM in experiment [2] (setting [3]).
In the case of `CC[C@H](C)[C@H](NC(=O)[C@H](CO)NC(=O)[C@H](Cc1ccc(O)cc1)NC(=O)[C@H](CC(=O)O)NC(=O)[C@H](CO)NC(=O)[C@@H](NC(=O)[C@H](Cc1ccccc1)NC(=O)[C@@H](NC(=O)CNC(=O)[C@H](CCC(N)=O)NC(=O)[C@@H](CO)NC(=O)[C@@H](N)Cc1c[nH]cn1)[C@@H](C)O)[C@@H](C)O)C(=O)N[C@@H](Cc1ccc(O)cc1)C(=O)N[C@@H](CC(C)C)C(=O)N[C@@H](CC(=O)O)C(=O)N[C@@H](CCCCN)C(=O)N[C@@H](CCC(N)=O)C(=O)N[C@@H](C)C(=O)N[C@@H](C)C(=O)NC(C)(C)C(=O)N[C@@H](CCC(=O)O)C(=O)N[C@@H](Cc1ccccc1)C(=O)N[C@H](C(=O)N[C@@H](CC(N)=O)C(=O)N[C@@H](Cc1c[nH]c2ccccc12)C(=O)N[C@@H](CC(C)C)C(=O)N[C@@H](CC(C)C)C(=O)N[C@@H](C)C(=O)NCC(=O)NCC(=O)N1CCC[C@H]1C(=O)N[C@@H](CO)C(=O)N[C@@H](CO)C(=O)NCC(=O)N[C@@H](C)C(=O)N1CCC[C@H]1C(=O)N1CCC[C@H]1C(=O)N1CCC[C@H]1C(=O)N[C@@H](CO)C(=O)N[C@@H](CS)C(N)=O)C(C)C` [compound 48] (H-H[dS]QGTFTSDYSIYLDKQAA[Aib]EFVNWLLAGGPSSGAPPPSC-NH2; N-terminus assumed), the EC50 in experiment [1] (Table 6, Example 12) is 0.433 nM; in experiment [2] (Table 6, Example 12), 0.01 nM.
